# From paper PMC9250534, “Synthesis and direct assay of large macrocycle diversities by combinatorial late-stage modification at picomole scale” (Nature Communications, 2022)
# Where “and” joins values, the source holds several entries; their conditions need not be identical. Identical values can stand only once. Like-named read-outs stand apart in the source and are kept apart here.
# Tests used:
# [1] = molecular target: T1, MDM2 (Homo sapiens, UniProt Q00987); assay: MDM2 binding (FP53 displacement) by HPLC fractions of resynthesized hit reactions
# T1 sequence (Q00987 whole entry): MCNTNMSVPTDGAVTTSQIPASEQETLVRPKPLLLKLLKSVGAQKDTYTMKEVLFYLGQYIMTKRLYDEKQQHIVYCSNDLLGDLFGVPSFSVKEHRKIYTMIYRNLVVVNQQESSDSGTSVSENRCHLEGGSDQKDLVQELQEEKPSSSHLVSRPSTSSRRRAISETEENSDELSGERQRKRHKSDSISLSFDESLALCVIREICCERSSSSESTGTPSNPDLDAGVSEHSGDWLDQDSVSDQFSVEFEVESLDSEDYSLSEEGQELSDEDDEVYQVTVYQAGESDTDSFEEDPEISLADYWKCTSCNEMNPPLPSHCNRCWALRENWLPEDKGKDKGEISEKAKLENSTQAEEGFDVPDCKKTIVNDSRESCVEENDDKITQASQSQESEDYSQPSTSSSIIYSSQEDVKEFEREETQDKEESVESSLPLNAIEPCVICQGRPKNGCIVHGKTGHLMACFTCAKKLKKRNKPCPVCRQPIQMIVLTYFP
# Method: For hits from the MDM2 screen, reactions were performed in the same way but at a 50 nmol scale, and purified with the same method but a 10–80% gradient of solvent B and over 22 min. Fractions were lyophilized and dissolved in 40 μL of DMSO, 160 μL of water was added, and 5 μL of each fraction was transferred to a 384-well plate (Nunc, 264705), and 15 μL of premixed MDM2/FP53 peptide were added (final concentrations: 1.2 μM MDM2, 50 nM FP53, 5% DMSO).
# [2] = molecular target: T1, MDM2; assay: Kd of MDM2 binders by surface plasmon resonance (SPR); format: binding; conditions: unlabeled macrocycles; triplicate
# Method: Experiments were performed using a GE Healthcare Biacore 8 K instrument. MDM2 (10 μg/mL) was dissolved in 10 mM MES buffer (pH 6.0) and immobilized on three channels of a CM5 series S chip (Cytiva, 29104988) using EDC/NHS amine coupling conditions in running buffer (10 mM PBS pH 7.4, 150 mM NaCl, 3 mM KCl, and 0.005% v/v Tween 20). Typical immobilization level was 6000 to 7000 resonance units (RUs). The reference cell was treated the same way without MDM2. For the measurement of binding kinetics and dissociation constants, five serial dilutions (3-fold) of macrocycles plus a DMSO blank were prepared in running buffer (10 mM PBS pH 7.4, 150 mM NaCl, 3 mM KCl, and 0.005% v/v Tween 20, and 0.5% v/v DMSO) and analyzed in single cycle kinetics mode with contact and dissociation times of 120 s and 60 s, respectively. The data was collected and analyzed using the Biacore 8 K Control Software.
# Supplementary Figure 14. Binding of macrocycles to MDM2 measured by SPR. a, Single-cycle SPR sensorgrams for fluorescein-labeled macrocycles, positive control nutlin-3a (not fluorescein labeled), and negative controls (thrombin inhibitors; not fluorescein labeled). RU, response unit. b, Single-cycle SPR sensorgrams for macrocycles M6, M7, M8 and M10 (not fluorescein-labeled), performed in triplicate.
# (1 picture or pasted object on this page, not shown here)
# [3] = molecular target: T1, MDM2; assay: IC50 of purified MDM2-binding macrocycles, fluorescence polarization competition with FP53; conditions: for IC50: HPLC-purified macrocycle, FP displacement of fluorescent reporter peptide; for anisotropy: replicates 1-3
# Method: Volumes of 5 μL of purified macrocycles (20 mM in DMSO) were serial diluted two-fold in 100% DMSO in a low dead-volume ECHO source plate. Using acoustic droplet transfer, 150 nL of each dilution was transferred to a 384 well low volume polystyrene plate (Nunc, 264705). […] Fluorescence anisotropy was measured as described above. The percentage of bound inhibitor was calculated using the following equation4 %boundinhibitor=N−X/N−P×100 where N is the average anisotropy of the DMSO controls, X is the anisotropy value obtained for each well, and P is the average anisotropy of the unbound probe. The IC50s were determined by plotting the percent of bound inhibitor against the logarithm of the corresponding macrocycle concentration, and the curves were fitted in GraphPad Prism 6 as described above.
# [4] = prodrug; cited from earlier work
# [5] = test system: MDM2; conditions: MDM2 inhibitor in clinical studies; literature value, no reference given; read-out: HTRF IC50; cited from earlier work
compound,measurement,setting,value
O=C(NC[C@@H]1NC(=O)[C@H]2CCCN(C2)C(=O)CCSSCCNC(=O)[C@H](Cc2c[nH]c3ccccc23)NC1=O)c1ccc(Cl)s1 [M6],Fraction bound (fraction fluorescent probe displaced),[1]; HPLC Fraction 1 of acylation reaction,-0.09
same,Fraction bound (fraction fluorescent probe displaced),[1]; HPLC Fraction 2 of acylation reaction,0.04
same,Fraction bound (fraction fluorescent probe displaced),[1]; HPLC Fraction 3 of acylation reaction,0.0145
same,Fraction bound (fraction fluorescent probe displaced),[1]; HPLC Fraction 4 of acylation reaction,0.04
same,Fraction bound (fraction fluorescent probe displaced),[1]; HPLC Fraction 5 of acylation reaction,-0.0633
same,Fraction bound (fraction fluorescent probe displaced),[1]; HPLC Fraction 6 of acylation reaction,-0.0373
same,Fraction bound (fraction fluorescent probe displaced),[1]; HPLC Fraction 7 of acylation reaction,-0.0114
same,Fraction bound (fraction fluorescent probe displaced),[1]; HPLC Fraction 8 of acylation reaction,-0.0114
same,Fraction bound (fraction fluorescent probe displaced),[1]; HPLC Fraction 9 of acylation reaction,0.0664
same,Fraction bound (fraction fluorescent probe displaced),[1]; HPLC Fraction 10 of acylation reaction,-0.0373
same,Fraction bound (fraction fluorescent probe displaced),[1]; HPLC Fraction 11 of acylation reaction,-0.09
same,Fraction bound (fraction fluorescent probe displaced),[1]; HPLC Fraction 12 of acylation reaction,-0.0633
same,Fraction bound (fraction fluorescent probe displaced),[1]; HPLC Fraction 13 of acylation reaction,-0.0373
same,Fraction bound (fraction fluorescent probe displaced),[1]; HPLC Fraction 14 of acylation reaction,0.27
same,Fraction bound (fraction fluorescent probe displaced),[1]; HPLC Fraction 15 of acylation reaction,-0.22
same,Fraction bound (fraction fluorescent probe displaced),[1]; HPLC Fraction 16 of acylation reaction,-0.0114
same,Fraction bound (fraction fluorescent probe displaced),[1]; HPLC Fraction 17 of acylation reaction,0.04
same,Fraction bound (fraction fluorescent probe displaced),[1]; HPLC Fraction 18 of acylation reaction,-0.0373
same,Fraction bound (fraction fluorescent probe displaced),[1]; HPLC Fraction 19 of acylation reaction,-0.24
same,Fraction bound (fraction fluorescent probe displaced),[1]; HPLC Fraction 20 of acylation reaction,-0.0633
same,Kd,[2],600 ± 300 nM
same,IC50,"[3]; average of 3 replicates, read-out: IC50 Average",2400 nM
same,IC50,"[3]; replicate 1, read-out: IC50 Replicate 1",2600 nM
same,IC50,"[3]; replicate 2, read-out: IC50 Replicate 2",1900 nM
same,IC50,"[3]; replicate 3, read-out: IC50 Replicate 3",2600 nM
same,displacement of fluorescent peptide probe from MDM2,"[3]; HPLC-purified macrocycles, FP competition",efficiently displaced
same,anisotropy,[3]; Log[Macrocycle] M -4.0,25 and 23 and 22
same,anisotropy,[3]; Log[Macrocycle] M -4.3,31 and 28 and 30
same,anisotropy,[3]; Log[Macrocycle] M -4.6,33 (2×) and 32
same,anisotropy,[3]; Log[Macrocycle] M -4.9,38 and 32 and 40
same,anisotropy,[3]; Log[Macrocycle] M -5.2,47 and 39 and 44
same,anisotropy,[3]; Log[Macrocycle] M -5.5,51 and 45 and 47
same,anisotropy,[3]; Log[Macrocycle] M -5.8,62 and 52 and 55
same,anisotropy,[3]; Log[Macrocycle] M -6.1,69 and 59 and 62
same,anisotropy,[3]; Log[Macrocycle] M -6.4,80 and 67 and 64
same,anisotropy,[3]; Log[Macrocycle] M -6.7,83 and 68 and 74
same,anisotropy,[3]; Log[Macrocycle] M -7.0,78 and 72 and 75
same,anisotropy,[3]; Log[Macrocycle] M -7.3,86 and 75 and 80
same,anisotropy,[3]; Log[Macrocycle] M -7.6,89 and 77 and 85
same,anisotropy,[3]; Log[Macrocycle] M -7.9,88 and 77 and 82
same,anisotropy,[3]; Log[Macrocycle] M -8.2,89 and 77 and 85
same,anisotropy,[3]; Log[Macrocycle] M -8.5,91 and 80 and 78
CCCCCCOC(=O)NC(=N)c1ccc(NCc2nc3cc(C(=O)N(CCC(=O)OCC)c4ccccn4)ccc3n2C)cc1 [dabigatran etexilate],oral availability,[4],< 6.5%
